According to patent US20170188606A1, “COMPOUNDS, COMPOSITIONS, AND METHODS FOR REDUCING OR E[…] TASTE” (Chromocell Corporation, priority 2014, published 2017):

Tests used:
[1] = tested on: bitterness of 500 ppm RebA; assay: Discrimination testing with sureness (Latin square 2-AFC) and R-index analysis, aqueous RebA; assay type: in vivo, Humans; settings: 5 ppm in 500 ppm RebA, Discrim. Sureness, N 34, vs control
Source text: The discrimination testing with sureness extends the simple yes/no task of discrimination test in a signal detection procedure to include a sureness rating scale. The discrimination test principle is based on two alternative forced choice (2-AFC) manner, in this methodology, panelists are presented with multiple samples, in which one sample is a control, and the other sampled are test variants. A blind control is included in the test variants along with a known control. Panelists are asked to first discriminate between the known control and a variant by identifying which the sample is less bitter. Second, panelists rate their sureness of their response (e.g., sure, unsure, or guess).
To minimize bias and prevent panelist expectation of sample order, a Latin square randomization design is utilized. The samples within a set will be randomized and the sets are randomized via Latin square. The number of presentations is equally distributed. Each of the test samples is evaluated against a negative control sample to calculate R-index score and associated p-value. […] R-index is utilized to indicate the degree of difference between the test and the control sample. […]
The blocker candidates were evaluated in a “sip and spit” format using this methodology and analysis and were the results of at least 30 observations (e.g., 15 panelists and 2 replications or 10 panelists 3 replications).

[2] = tested on: bitter taste in grape-flavored cough syrup (Robitussin Cough and Cold CF); assay: Cough syrup 2-AFC analysis (Example 3); assay type: in vivo, Humans; settings: 0.1 ppm in cough syrup; testers n=7
Protocol: (§1) Compound 1 was screened for a reduction of bitter taste due to a bitter tastant in children's grape flavored cough syrup (Robitussin Cough and Cold CF™, Lot #: R10494, Exp. 07/15). Compound 1 was solubilized in […] (PG), dosed into the cough syrup, and placed in 3 mL amounts in sample vials. Control samples contained an equal amount of PG to samples containing Compound 1. Testers (n=7) were asked to use a plastic transfer pipette for tasting, rinsing with water between samples and choosing the less bitter sample via the two alternative forced choice (2-AFC) method.

[3] = tested on: bitter taste in grape-flavored cough syrup (Robitussin Cough and Cold CF); assay: Cough syrup 2-AFC analysis with 50 ppb and 100 ppb (Example 4); assay type: in vivo, Humans; settings: for Cmpd. Chosen Overall: chosen as less bitter, n=11
Protocol: as §1, with “2.5” for “3”, “vials to afford 50 ppb or 100 ppb Compound 1 in the samples.” for “vials.”, “(n=11)” for “(n=7)”

sweetness perception = assay: Inherent sweetness assessment using 2-AFC method vs 1.5% sucrose; assay type: in vivo, human; settings: for % correct: % needed 67%; for x (choosing Sample 1 as sweeter): n 36
Protocol: Sucrose solutions were prepared by adding sucrose to water to achieve the desired concentrations. Compounds were first prepared as 250-fold concentrated stocks in a 50% ethanol (200 proof), 50% water solution. These concentrated stocks were then diluted in water to achieve a final ethanol concentration of 0.2%. The control solutions were also normalized to 0.2% ethanol.
Compound 1 was evaluated in an aqueous solution for sweetness perception in a 2-AFC test. This test was a double-blinded, randomized study where taste panelists evaluate a pair of solutions one at a time for sweetness. Panelists were instructed not to eat or drink (except water) for at least one hour before the test. During the test, panelists were instructed to sip each sample, swirl it around their mouth and then expectorate. After tasting each sample in the pair, panelists were instructed to record the sample that is “sweeter” in taste. Panelists cleansed their palates by rinsing with water, eating a cracker and waiting for an interval of about 5 minutes. Each pair was tasted twice. All samples were tasted at ambient temperatures. Compound 1 (at various concentrations) was evaluated in comparison to the control, 1.5% sucrose. The flavor and extract manufacturers association (FEMA) characterizes any compound that has a sweetness intensity greater than that of 1.5% in a water base as inherently sweet.
Control Sample (Sample 1): 1.5% sucrose in water
Test Samples (Sample 2): • 10 μg/mL (10 ppm) Compound 1 in 0.2% ethanol in water • 2 μg/mL (2 ppm) Compound 1 in 0.2% ethanol in water • 0.5 μg/mL (500 ppb) Compound 1 in 0.2% ethanol in water
Eighteen subjects completed two replicates of a 2-AFC test for sweetness. Thirty three responses indicated the Control Sample was sweeter for each of the test samples evaluated. Three responses indicated the Test Sample was sweeter for each of the test samples evaluated. Using a beta binomial distribution, p=0.000 (two-sided alternative).

[4] = tested on: bitter taste of Orange VitaminWater (Stevia Leaf Extract, rebaudioside A); assay: Descriptive analysis (DA) panel taste test, Orange VitaminWater
[5] = tested on: bitter taste of rebaudioside A; assay: Descriptive analysis (DA) panel taste test, aqueous rebaudioside A
[6] = tested on: bitter taste receptor (T2R); settings: Compound 1 3.2 mM in the absence of rebaudioside A; vs vehicle control
Protocol: Both the rebaudioside A and Compound 1 solutions were prepared in a standard HEPES buffer solution. Rebaudioside A was evaluated at a concentration of 825 μM and Compound 1 was evaluated at 3.2 mM (in the presence and absence of 825 μM rebaudioside A) and compared to vehicle control (HEPES buffer solution). Cells were incubated with a calcium responsive dye for one hour at 37 C and then exposed to rebaudioside A, Compound 1 (in the presence and absence of 825 μM rebaudioside A) and vehicle control. Change in fluorescence prior to compound addition and after compound addition was monitored for five minutes using a Hamamatsu Functional Drug Screening System (FDSS) 6000. The difference in fluorescence response over vehicle control was calculated using maximal cellular responses for each compound.

[7] = Compound 1 @ 0.5 μg/mL in water vs 1.5% sucrose
[8] = Compound 1 @ 2 μg/mL in water vs 1.5% sucrose
[9] = Compound 1 @ 10 μg/mL in water vs 1.5% sucrose
[10] = Panel A, Orange Vitamin Water Zero + Compound 1 @5 ppm, 15 cm scale
[11] = Panel B, fully solubilized, Orange VitaminWater (head: 500 ppm Reb-A) + Compound1 @0.25 ppm, 0.2% ethanol
[12] = Panel A, 500 ppm RebA + Compound 1 @7.5 ppm in water, 15 cm scale
[13] = Panel B, fully solubilized, 500 ppm Reb-A + Compound 1 @0.3 ppm, aqueous, 0.2% ethanol

Which results are given for `CN[C@@H](Cc1c[nH]c2ccccc12)C(=O)O` [Compound 1, N-methyl-L-tryptophan]?
R-index [1]: 63.3%; Compound Chosen as Less Bitter [2]: 5; Control Chosen as Less Bitter [2]: 1; No Choice Made [2]: 1; Chosen if 1st in Pair ([3]; 50 ppb in cough syrup): 5/6; Chosen if 2nd in Pair ([3]; 50 ppb in cough syrup): 2/5; Chosen in 1st Pair ([3]; 50 ppb in cough syrup): 5/6; Chosen in 2nd Pair ([3]; 50 ppb in cough syrup): 2/5; Cmpd. Chosen Overall ([3]; 50 ppb in cough syrup): 7/11; Chosen if 1st in Pair ([3]; 100 ppb in cough syrup): 4/5; Chosen if 2nd in Pair ([3]; 100 ppb in cough syrup): 3/6; Chosen in 1st Pair ([3]; 100 ppb in cough syrup): 3/5; Chosen in 2nd Pair ([3]; 100 ppb in cough syrup): 4/6; Cmpd. Chosen Overall ([3]; 100 ppb in cough syrup): 7/11; d′ (sweetness perception; [7]): 1.956; % correct (sweetness perception; [7]): 92%; x (choosing Sample 1 as sweeter) (sweetness perception; [7]): 33; d′ (sweetness perception; [8]): 1.956; % correct (sweetness perception; [8]): 92%; x (choosing Sample 1 as sweeter) (sweetness perception; [8]): 33; d′ (sweetness perception; [9]): 1.956; % correct (sweetness perception; [9]): 92%; x (choosing Sample 1 as sweeter) (sweetness perception; [9]): 33; inherent sweetness (sweetness perception; concentrations up to 10 μg/mL (10 ppm), 0.2% ethanol in water, vs 1.5% sucrose): do not elicit inherent sweetness; Bit Aft [4, 10]: 2.94; Bitter [4, 10]: 4.97; HPB [4, 10]: 6.83; Licorice [4, 10]: 2.74; Swt Aft [4, 10]: 3.89; Swt Linger [4, 10]: 1.99; Bitter [4, 11]: 3.9; HPB [4, 11]: 5.4; Bitter [5, 12]: 5.32; Bitter Aft [5, 12]: 3.18; HPB [5, 12]: 7.70; Licorice [5, 12]: 6.58; Sweet Aft [5, 12]: 4.71; Sweet Linger [5, 12]: 2.55; Bitter [5, 13]: 3.4; Bitter Aft [5, 13]: 1.6; HPB [5, 13]: 5; fluorescent response from Compound 1 on its own [6]: not significantly different from vehicle control
